Source: patent publication US11985977B2, “Use of composition as a growth promotant for plants” (UENME Global Pty LTD, priority 2018, dated 2024)

Legend:
[1] = system: mango trees (cv Kensington Pride); assay: Second mango trial, fruit and tree health (Example 6); format: in vivo, Mangifera indica
Rhodes grass = Rhodes grass pasture dieback trial (Example 2); format: in vivo; details: 0.03% w/v applied 27 Jun. 2017; sample taken 8 Aug., kept in 10 ml rainwater, observed by 28 Aug. 2017; no change on untreated control
Protocol: On a property near Gin Gin, Queensland a pasture area of Rhodes grass was suffering from “pasture dieback”.
On 27 Jun. 2017 TMT supplied in a 15% aqueous solution diluted in rainwater at 1 in 500 (10 ml/5 L), namely in a 0.03% w/v aqueous solution was applied to a portion of that pasture area hereinafter referred to as the “treated grass”.
On 8 Aug. 2017 grass samples were taken from the treated grass (as a test sample) and from the surrounding untreated grass (as a control sample), and each of these grass samples were placed in separate open containers containing 10 ml of rainwater.

Phytophthora = assay: Laboratory study on Phytophthora in avocado soil (Example 4); format: cell-based
Protocol: Laboratory study on Phytophthora (30 Sep. 2017 onwards to August 2018)
Crop avocado soil with Phytophthora.
Treatment TMT supplied in a 15% aqueous solution diluted at 1:500 (10 ml/5 L)

rat = details: ingestion; cited from earlier work
Phellinus = assay: Similar laboratory study on Phellinus from avocado and Eucalyptus; format: cell-based; details: similar TMT aqueous solutions; pathogens found on avocado and Eucalyptus
[2] = system: other soil microbes including other pathogens, fungi, bacteria as well as other soil or water borne biota; assay: Toxicity to other soil microbes and biota; details: TMT diluted with water
[3] = system: blue gum, spotted gum, blood wood, lemon scented gum, Moreton Bay ash and Corymbia costata; assay: Additional Eucalypt trials, bark spray; format: in vivo, Eucalypts; details: bark sprayed; drought conditions, Phytophthora in the soil
Protocol: Additional trials were also carried out on Eucalypts other than that described in Example 3.
Under current drought conditions and the presence of Phytophthora in the soil, all of the additional trees we trialled looked close to death. The bark of all the following trees were sprayed viz. blue gum, spotted gum, blood wood, lemon scented gum, Moreton Bay ash and Corymbia costata.

[4] = system: hemp, macadamias, grapes, citrus (mandarins) and capsicum; assay: Various other crop trials, spraying; format: in vivo; details: 0.03% w/v spray
[5] = system: mango (Mangifera indica) trees (cv Kensington Pride); assay: Mango early flowering and fruiting, foliar spray (Example 8); format: in vivo; details: 0.03% w/v
Protocol: These mango trees are in rocky poor soil, that is not irrigated.
On 28 Jun. 2019, TMT supplied in a 15% aqueous solution diluted in rainwater at 1 in 500 (10 ml/5 L), namely in 0.03% w/v aqueous solution was applied by foliar spraying.

[6] = system: blue grass, couch, Rhodes and turf grasses; assay: Grass trials (die back); format: in vivo
Protocol: Trials were performed on grazing land, a football field, a house front lawn with controls and on golf course couch greens. In all trials on soil with spray application (50 L/50 m^2) relative to controls with water only or TMT+humate solution applied in zeolite or in biochar+/− TMT and humate, 1 kg/10 m^2 with 40 L of solution/T of absorbent.

[7] = system: Araucaria, Cassia and Bauhinia, Grevillea; assay: Tree trials, spraying; format: in vivo; details: 0.03% w/v spray; after a few weeks of spraying
[8] = system: native bloodwood (Eucalyptus) trees; assay: Bloodwood trees, bark and soil drench (Example 3); format: in vivo; details: 0.03% w/v, three applications drenching bark and surrounding soil; trees appeared to be dying
Protocol: On 10 Apr. 2017 TMT supplied in a 15% aqueous solution diluted in rainwater at 1 in 500 (10 ml/5 L), namely in 0.03% w/v aqueous solution was first applied by drenching the bark and surrounding soil for each of the three.
Second and third similar applications of a 0.03% w/v TMT aqueous solution were made to the three trees on 3 June and 27 June respectively.

[9] = system: Phellinus (fungal pathogen); assay: Second mango trial, fungal pathogen (Example 6); format: in vivo; details: spraying as in Example 5; Phellinus fruiting bodies under the bark at start
Pithium = assay: Similar laboratory study on Pithium from avocado and Eucalyptus; format: cell-based; details: similar TMT aqueous solutions; pathogens found on avocado and Eucalyptus
[10] = system: insects, annelids, crustaceans, molluscs, arachnids, birds and animals; assay: Observed effect on other small organisms, birds and animals; format: in vivo; details: TMT diluted with water as in the embodiments and examples
From the text: The LD-50 for the rat is 2× the body mass of the rat, so it would drown before dying by ingestion.

mango (Mangifera indica) = assay: Mango orchard foliar and stem spray, growth and fruit (Example 5); format: in vivo
Protocol: TMT supplied in a 15% aqueous solution diluted in rainwater at 1 in 500 (10 ml/5 L), namely in 0.03% w/v aqueous solution was used. These three trees were foliar and stem sprayed (2 litre/tree each time) with the solution, once, twice or three times some two weeks apart.

[11] = system: fungal pathogens Phellinus and Phytophthora; assay: Mango orchard foliar and stem spray, fungal pathogens (Example 5); format: in vivo; details: 0.03% w/v, foliar and stem spray 2 litre/tree, once, twice or three times two weeks apart; three mango trees
Protocol: TMT supplied in a 15% aqueous solution diluted in rainwater at 1 in 500 (10 ml/5 L), namely in 0.03% w/v aqueous solution was used. These three trees were foliar and stem sprayed (2 litre/tree each time) with the solution, once, twice or three times some two weeks apart. The fungal pathogen was killed. The growth response was extraordinary, but in order of the number of sprays. Leaves in both number and size followed suit as did flower spikes and fruit set. Fruit harvested was 10% greater in mass for each additional spray.

[12] = system: Native pine trees (Auracaria spp.); assay: Native pine trees spray; format: in vivo; details: sprayed 28 Jun. 2019
From the text: Native pine trees (Auracaria spp.) of differing varieties, also on the same property as in Example 8, were also sprayed on the 28 Jun.

Phytothphora cinnamomi = assay: Contact kill of soil borne fungal pathogens; format: cell-based; details: TMT diluted with water
From the text: (§1) TMT diluted with water kills the soil borne fungal pathogens, Phytothphora cinnamomi, Pithium spp., and Phellinus spp. on contact.

Pithium spp. = assay: Contact kill of soil borne fungal pathogens; format: cell-based; details: TMT diluted with water
From the text: as §1

Phellinus spp. = assay: Contact kill of soil borne fungal pathogens; format: cell-based; details: TMT diluted with water
From the text: as §1

Fusarium oxysporum = assay: Banana plantation foliar spray trial (Example 7); format: in vivo; details: 0.03% w/v foliar spray, seven affected banana plants (cv Lady Finger); no change in water-sprayed control
Protocol: On a banana (Musa) plantation in Queensland, banana plants (cv Lady Finger) were identified to be affected with Fusarium oxysporum (an ascomycete fungus). Vascular colourisation was seen where the fungus had colonised. A trial using foliar sprays was used. TMT supplied in a 15% aqueous solution diluted in rainwater at 1 in 500 (10 ml/5 L), namely in 0.03% w/v aqueous solution was used for the foliar spraying of seven affected banana plants.

[13] = Growth stimulation by TMT mixed with liquid humate solution and powdered zeolite; format: in vivo; details: TMT mixed with a liquid humate solution containing fine powdered zeolite (<40 u)
[14] = system: avocado (Persea americana); assay: Avocado orchard soil spray trial (Example 1); format: in vivo
Protocol: In an avocado (Persea americana) orchard in Queensland, an area of the orchard was selected with poor tree health.
TMT supplied in a 15% aqueous solution was diluted in collected rainwater at 1 in 400, namely in a 0.0375% w/v aqueous solution, was applied with a fire-fighting pump and sprayed to the soil only beneath two trees. This spraying mimicked a tree sprinkler application and was applied as twenty litres per tree.

Macadamia tree = Macadamia tree foliar spray, early flowering; format: in vivo
From the text: On the same property as in Example 8, a Macadamia tree was also foliar sprayed on 28 Jun.

[15] = aqueous solution and foliar and stem spraying as in Example 5
[16] = thirty-six days, without watering or fertilizer since spraying

## Sc1nc(S)nc(S)n1 [TMT, 1,3,5-Triazinane-2,4,6-Trithione]
[1]; [15]
  brix (sugar content measurement) higher than the control trees: approximately 10%
  fruit sweetness: noticeably sweeter
[1]; spraying as in Example 5
  disease and insect predators versus surrounding trees: much less disease and fewer insect predators
  leaves of treated trees versus surrounding trees: bigger brighter green leaves
[1]; unseasonal frost, nearby unsprayed trees were subject to frost damage
  frost damage: not affected by an unseasonal frost
Rhodes grass
  shoot and root formation on treated grass sample: shoots and roots formed thereon
Phytophthora; 15% aqueous solution diluted at 1:500
  development of spores that break out of sporangias: do not develop
Phytophthora; 15% aqueous solution diluted at 1:500 (10 ml/5 L), avocado soil with Phytophthora
  effect on Phytophthora: kills and stops lifecycle of Phytophthora
rat
  LD-50: 2 × the body mass of the rat
Phellinus
  effect on Phellinus in samples: appeared to have been killed
[2]
  toxicity to other soil microbes and biota: not to be toxic
[3]
  response of trees close to death: slow but consistent response, with epicormic buds appearing on the tree trunks, under the bark and new leaves appearing on apparently dead branches
[4]
  growth of crop plants: improvement of growth
[5]; single foliar spray 28 Jun. 2019, within two weeks, normal flowering end of August
  flowering: coming into flower
[5]; by 3 Aug. 2019, some thirty-six days from spraying
  flower maturation and fruit set: the initiated flowers had matured, and the setting of fruit had commenced
[5]; by 18 July, some three weeks after spraying
  flowering: continue showing flowering
[5]; by 28 Sep. 2019, some ninety-six days from spraying
  fruit growth: growing apace
[5]; [16]
  new flowering: abundance of new flowering
  signs of stress: not showing any signs of stress
[6]; 0.03% w/v spray
  dry matter, mass relative to the control: 200% +/−4
  effect on mite infection: overturned the mite infection
[6]; 0.03% w/v spray, range of grass species, cause uncertain due to mealy bug
  treatment of grass die back from Phellinus and Pithium: successful
[6]; spray 50 L/50 m^2 on grazing land, house front lawn, golf course couch greens, except the football field (chlorinated town water)
  time until dead patches were resolved completely: 10 to 14 days
[7]
  growth of trees showing poor growth: marked improvement with growth
[8]
  new shoots and leaf growth: new shoots from branch axils and new leaf growth appeared
[9]
  effect on fungal pathogen: killed
Pithium
  effect on Pithium in samples: appeared to have been killed
[10]
  effect on other small organisms, birds and animals: benign
Mango (Mangifera indica); 0.03% w/v, foliar and stem spray, one to three sprays, response in order of the number of sprays
  growth response: extraordinary
Mango (Mangifera indica); 0.03% w/v, foliar and stem spray, per additional spray
  fruit harvested, greater in mass for each additional spray: 10%
Mango (Mangifera indica); 0.03% w/v, one to three sprays, relative to order of number of sprays
  leaves in number and size, flower spikes and fruit set: followed suit
Mango (Mangifera indica); observed but not measured
  fruit sweetness: sweeter with increased spraying
[11]
  effect on fungal pathogen: killed
[12]
  new growth out of season: gone into new growth
Phytothphora cinnamomi
  kill on contact: kills
Pithium spp.
  kill on contact: kills
Phellinus spp.
  kill on contact: kills
Fusarium oxysporum
  success on killing off the fungus on affected plants: 100%
[13]
  functionality to stimulate growth: increased synergistically
[14]; 0.0375% w/v aqueous solution, 20 L per tree sprayed to soil beneath two trees, within one week of spraying
  indications of new growth: marked new growth
[14]; 0.0375% w/v, soil spray, about seven and a half months after spraying
  feeder roots examined: healthy feeder roots and earthworms were found
[14]; 0.0375% w/v, soil spray, within four months
  growth in size more than the surrounding trees: 20-25%
[14]; 0.0375% w/v, soil spray, within seven weeks of spraying
  appearance of treated trees versus surrounding trees: significantly different to the surrounding trees
Macadamia tree; 0.03% w/v foliar spray 28 Jun. 2019, after about two weeks, normally flowers in late August
  flowering: came into flower
Macadamia tree; 0.03% w/v, after three weeks
  flowering: continued to produce flowers
Macadamia tree; 0.03% w/v, by 3rd August, some thirty-six days after spraying
  flower maturation and fruit (nut) set: the flowers have matured and the setting of fruit(nut) has commenced
Macadamia tree; 0.03% w/v, by 28 Sep. 2019, some ninety-six days from spraying
  fruit growth: growing apace
